Test results reported in patent US20250213560A1, “NITROGEN-CONTAINING HETEROCYCLIC COMPOUNDS HAVING PHENYL GROUP AND USES THEREOF” (BNH RESEARCH CO., LTD., priority 2022, published 2025).

What was measured:
293T cells = experiment: Cytotoxicity test (CCK-8 cell viability) in 293T cells; format: cell-based, human; conditions: 293T cell line
Description: Human undifferentiated neuroblastoma cell line SH-SY5Y and human embryonic kidney cell line (HEK)-293T were purchased from Korean Cell Line Bank (Korea) and Takara (Japan), respectively. Cells were grown in HyClone Minimal Essential Medium (MEM) and Dulbecco's Modified Eagle Medium (DMEM), respectively, supplemented with 10% (v/v) fetal bovine serum (FBS), penicillin (100 U/mL), and streptomycin ([…]). Cells were maintained in a humidified atmosphere of 95% air and 5% CO2 at 37° C. Cells were passaged 10 times at maximum. Cells were dissociated using 0.05% trypsin-EDTA solution and the cells were seeded in new culture dishes for maintenance.
To examine the cytotoxicity of compounds described herein in human cell lines, SH-SY5Y and 293T cells were used. Approximately 8,000 cells (for 293T) and 15,000 cells (for SH-SY5Y) were plated per well of a 96-well plate (SPL Life Sciences Co., Ltd., Pocheon, Korea). After incubating at 37° C. for 24 hours in a humidified atmosphere containing 5% CO2, the culture medium was replaced by a series of concentrations of test compounds diluted in the corresponding culture medium.
The time of co-incubation was 24 hours and six replicates were made for each measurement. Finally, 10 μL of CCK-8 reagent (Dojindo Laboratories, Rockville, MD) was added to each well, and after incubation at 37° C. for 3 minutes, the OD at 450 nm was measured using a multifunction microplate reader (Tecan Infinite M200 Pro). These measurements were compared to that of a control and expressed as a percentage of the control to calculate cell viability. The IC50 value was calculated using SPSS software. To do this, the absorbance of the blank wells with only growth medium is subtracted from the values or the wells with cells. The readout value of background (vehicle) was set as a 100% viability, and then the percent viability for each test solution was calculated.
The data was presented as the mean value and standard error of the mean (S.E.M.). Statistical analysis was performed with the one-way ANOVA with Tukey's post hoc test (GraphPad Prism 5 software package, version 5.02, GraphPad Software Inc. USA). Significance was accepted at p<0.05.
The cytotoxicity of the compound was evaluated by treating cells with BnH12003 and measuring cell viability.
By treating cells with various BnH12 series compounds and measuring cell viability using the experimental procedure described in Example 2, the cytotoxicity of the compounds was evaluated.

GluN2B = GluN2B protein expression by Western blot in primary cortical neuron cells; format: cell-based, mouse; conditions: for GluN2B expression effect (in words): compared to vehicle / other compounds, Table 5; for Western blot results Mean (GluN2B expression): relative value, vehicle set to 1, primary cortical neurons treated for 24 hours
Description: Meanwhile, primary cortical neuron cells were isolated from cerebral cortices of 18-day-old mouse fetuses, incubated in prep media (composition (mM): NaCl 107.5, NaH2PO4 1, NaHCO333.5, glucose 11, HEPS 1%, penicillin-streptomycin 1%) containing 0.25% trypsin and DNasel for 30 minutes, dissociated into single cells, and seeded. Primary cortical neuron cells were grown in Neurobasal medium supplemented with 1% (v/v) B27, 1% penicillin (100 U/mL), streptomycin ([…]), and 1% Glutamax. Cells were maintained in a humidified atmosphere of 95% air and 5% CO2 at 37° C. Drug efficacy was evaluated after culturing primary cortical neuron cells for 14 days.
The amount of GluN2B reacted with the compound of the present disclosure was measured using Western blot. The fetal cerebral cortex was extracted from mice at 17 days of gestation, dissociated into single cells, cultured for 13 days, and treated with BnH drugs for 24 hours. The drug-treated cells were subjected to protein lysate preparation using RIPA protein lysis buffer containing protease and phosphatase inhibitors. The protein concentration was determined using a BCA protein assay kit (Pierce Biotechnology) using bovine serum albumin as a standard. Equal amounts of protein (20 μg per lane) were separated by electrophoresis on SDS-polyacrylamide gels at 90 V for 2 hours, then transferred from the SDS-polyacrylamide gel to PVDF membrane at 100 V for 1 hour. Then, primary reaction with GluN2B antibody (ab65783, Abcam) was performed at 4° C. for 1 day, washed three times at 10-minutes intervals with 1×PBT, and secondary reaction was performed with anti-mouse antibody (sc-2357, Santa Cruz) for 1 hour, followed by washing three times at 10-minutes intervals with 1×PBT. Western blotting was performed as described above to confirm GluN2B protein expression. Subsequently, each blot was re-probed using anti-β-actin antibody (sc-47778, Santa Cruz). Housekeeping protein B-actin was detected as a normalization control.
The increase and decrease of BnH12 series were confirmed by setting the vehicle to 1 (N for each group was 3 or more).
Using the experimental procedure described in Example 3, it was determined whether various BnH12 series compounds increase GluN2B expression, and the results are shown in Table 5. These in vitro experimental results are expressed as relative values to the group (vehicle) that was not treated with the compound, with the effect of the group set to 1.

SMILES | Cell viability test results (CCK) 10 uM (293T cells) [%<] | Cell viability test results (CCK) 100 uM (293T cells) [%<] | GluN2B expression effect (in words) (GluN2B) | Western blot results Mean (GluN2B expression) (GluN2B)
C[C@H]1CC[C@@H](C(=O)O)CN1C(=O)Cc1cccc(-c2ccncc2)c1 [BnH12091, (3R,6S)-6-methyl-1-(2-(3-(pyridin-4-yl)phenyl)acetyl) piperidine-3-carboxylic acid] | 95 | 85 | excellent effects | 5.013
COc1ccc(-c2cccc(CC(=O)N3C[C@H](C(=O)O)CC[C@@H]3C)c2)cn1 [BnH12092, (3R,6S)-1-(2-(3-(6-methoxypyridin-3-yl)phenyl)acetyl)-6-methylpiperidine-3-carboxylic acid] | 90 | 75 | excellent effects | 3.524
C[C@H]1CC[C@@H](C(=O)O)CN1C(=O)Cc1cccc(-c2ncc(F)cn2)c1 [BnH12093, (3R,6S)-1-(2-(3-(5-fluoropyrimidin-2-yl)phenyl)acetyl)-6-methylpiperidine-3-carboxylic acid] | 85 | 80 | – | 1.611
C[C@H]1CC[C@@H](C(=O)O)CN1C(=O)Cc1cccc(-c2cncnc2)c1 [BnH12095, (3R,6S)-6-methyl-1-(2-(3-(pyrimidin-5-yl)phenyl)acetyl) piperidine-3-carboxylic acid] | 80 | 75 | excellent effects | 2.871
